≈ marks a conversion by molar mass, not a printed value. Where two headings read alike, the source gives them in different places.
Tested on: non-gonococcal Neisseria
Assay: MIC determination for non-gonococcal Neisseria, agar dilution
Assay type: cell-based, Neisseria species
Description: The 2024 WHO N. gonorrhoeae reference strains were used for quality control. Only whole MIC doubling dilutions are reported. Clinical breakpoints or the epidemiological cutoff (ECOFF, to indicate azithromycin resistance) from EUCAST (v14.0, https://www.eucast.org/clinical_breakpoints) were used to classify isolates as antimicrobial susceptible or resistant. […] Two times the standard inoculum defined by CLSI was used to establish consistent growth in untreated control samples for some strains. In vitro time-kill assays were performed according to CLSI guidelines[65] using Columbia Broth (BD Difco) supplemented with 1% IsoVitaleX Enrichment (BD). Viable bacterial counts were generated by plating 10-fold serially diluted samples on GC agar plates containing 1% IsoVitaleX Enrichment (BD).

SMILES: Cc1c(CN(C)C(=O)/C=C/c2cnc3c(c2)N[C@H](C)[C@H](O)C(=O)N3)oc2ccccc12 [Debio 1453]
- MIC (Neisseria perflava 25, Replicate 3, read-out: Minimum inhibitory concentration): 1 µg/mL (≈ 2.38 µM)
- MIC (Neisseria polysaccharea 2, Consensus, read-out: Minimum inhibitory concentration): 0.064 µg/mL (≈ 0.152 µM)
- MIC (Neisseria polysaccharea 2, Replicate 1, read-out: Minimum inhibitory concentration): 0.064 µg/mL (≈ 0.152 µM)
- MIC (Neisseria polysaccharea 2, Replicate 2, read-out: Minimum inhibitory concentration): 0.064 µg/mL (≈ 0.152 µM)
- MIC (Neisseria polysaccharea 2, Replicate 3, read-out: Minimum inhibitory concentration): 0.064 µg/mL (≈ 0.152 µM)
- MIC (Neisseria sicca 1, Consensus, read-out: Minimum inhibitory concentration): 0.5 µg/mL (≈ 1.19 µM)
- MIC (Neisseria sicca 1, Replicate 1, read-out: Minimum inhibitory concentration): 0.25 µg/mL (≈ 0.595 µM)
- MIC (Neisseria sicca 1, Replicate 2, read-out: Minimum inhibitory concentration): 0.5 µg/mL (≈ 1.19 µM)
- MIC (Neisseria sicca 1, Replicate 3, read-out: Minimum inhibitory concentration): 0.5 µg/mL (≈ 1.19 µM)
- MIC (Neisseria sicca 2, Consensus, read-out: Minimum inhibitory concentration): 0.25 µg/mL (≈ 0.595 µM)
- MIC (Neisseria sicca 2, Replicate 1, read-out: Minimum inhibitory concentration): 0.25 µg/mL (≈ 0.595 µM)
- MIC (Neisseria sicca 2, Replicate 2, read-out: Minimum inhibitory concentration): 0.25 µg/mL (≈ 0.595 µM)
- MIC (Neisseria sicca 2, Replicate 3, read-out: Minimum inhibitory concentration): 0.5 µg/mL (≈ 1.19 µM)
- MIC (Neisseria sicca 3, Consensus, read-out: Minimum inhibitory concentration): 0.008 µg/mL (≈ 0.019 µM)
- MIC (Neisseria sicca 3, Replicate 1, read-out: Minimum inhibitory concentration): 0.008 µg/mL (≈ 0.019 µM)
- MIC (Neisseria sicca 3, Replicate 2, read-out: Minimum inhibitory concentration): 0.016 µg/mL (≈ 0.0381 µM)
- MIC (Neisseria sicca 3, Replicate 3, read-out: Minimum inhibitory concentration): 0.008 µg/mL (≈ 0.019 µM)
- MIC (Neisseria sicca 4, Replicate 3, read-out: Minimum inhibitory concentration): 0.5 µg/mL (≈ 1.19 µM)
- MIC (Neisseria sicca 5, Consensus, read-out: Minimum inhibitory concentration): 0.016 µg/mL (≈ 0.0381 µM)
- MIC (Neisseria sicca 5, Replicate 1, read-out: Minimum inhibitory concentration): 0.008 µg/mL (≈ 0.019 µM)
- MIC (Neisseria sicca 5, Replicate 2, read-out: Minimum inhibitory concentration): 0.016 µg/mL (≈ 0.0381 µM)
- MIC (Neisseria sicca 5, Replicate 3, read-out: Minimum inhibitory concentration): 0.016 µg/mL (≈ 0.0381 µM)
- MIC (Neisseria sicca 6, Consensus, read-out: Minimum inhibitory concentration): 1 µg/mL (≈ 2.38 µM)
- MIC (Neisseria sicca 6, Replicate 1, read-out: Minimum inhibitory concentration): 1 µg/mL (≈ 2.38 µM)
- MIC (Neisseria sicca 6, Replicate 2, read-out: Minimum inhibitory concentration): 1 µg/mL (≈ 2.38 µM)
- MIC (Neisseria sicca 6, Replicate 3, read-out: Minimum inhibitory concentration): 1 µg/mL (≈ 2.38 µM)
- MIC (Neisseria sicca 7, Consensus, read-out: Minimum inhibitory concentration): 0.008 µg/mL (≈ 0.019 µM)
- MIC (Neisseria sicca 7, Replicate 1, read-out: Minimum inhibitory concentration): 0.008 µg/mL (≈ 0.019 µM)
- MIC (Neisseria sicca 7, Replicate 2, read-out: Minimum inhibitory concentration): 0.008 µg/mL (≈ 0.019 µM)
- MIC (Neisseria sicca 7, Replicate 3, read-out: Minimum inhibitory concentration): 0.008 µg/mL (≈ 0.019 µM)
- MIC (Neisseria sicca 8, Consensus, read-out: Minimum inhibitory concentration): 1 µg/mL (≈ 2.38 µM)
- MIC (Neisseria sicca 8, Replicate 1, read-out: Minimum inhibitory concentration): 0.5 µg/mL (≈ 1.19 µM)
- MIC (Neisseria sicca 8, Replicate 2, read-out: Minimum inhibitory concentration): 1 µg/mL (≈ 2.38 µM)
- MIC (Neisseria sicca 8, Replicate 3, read-out: Minimum inhibitory concentration): 1 µg/mL (≈ 2.38 µM)
- MIC (Neisseria sicca 9, Consensus, read-out: Minimum inhibitory concentration): 0.25 µg/mL (≈ 0.595 µM)
- MIC (Neisseria sicca 9, Replicate 1, read-out: Minimum inhibitory concentration): 0.25 µg/mL (≈ 0.595 µM)
- MIC (Neisseria sicca 9, Replicate 2, read-out: Minimum inhibitory concentration): 0.25 µg/mL (≈ 0.595 µM)
- MIC (Neisseria sicca 9, Replicate 3, read-out: Minimum inhibitory concentration): 0.25 µg/mL (≈ 0.595 µM)
- MIC (Neisseria subflava 1, Consensus, read-out: Minimum inhibitory concentration): 2 µg/mL (≈ 4.76 µM)
- MIC (Neisseria subflava 1, Replicate 1, read-out: Minimum inhibitory concentration): 2 µg/mL (≈ 4.76 µM)
- MIC (Neisseria subflava 1, Replicate 2, read-out: Minimum inhibitory concentration): 2 µg/mL (≈ 4.76 µM)
- MIC (Neisseria subflava 1, Replicate 3, read-out: Minimum inhibitory concentration): 2 µg/mL (≈ 4.76 µM)
- MIC (Neisseria subflava 2, Consensus, read-out: Minimum inhibitory concentration): 0.25 µg/mL (≈ 0.595 µM)
- MIC (Neisseria subflava 2, Replicate 1, read-out: Minimum inhibitory concentration): 0.25 µg/mL (≈ 0.595 µM)
- MIC (Neisseria subflava 2, Replicate 2, read-out: Minimum inhibitory concentration): 0.25 µg/mL (≈ 0.595 µM)
- MIC (Neisseria subflava 2, Replicate 3, read-out: Minimum inhibitory concentration): 0.25 µg/mL (≈ 0.595 µM)
- MIC (Neisseria subflava 3, Consensus, read-out: Minimum inhibitory concentration): 0.25 µg/mL (≈ 0.595 µM)
- MIC (Neisseria subflava 3, Replicate 1, read-out: Minimum inhibitory concentration): 0.25 µg/mL (≈ 0.595 µM)
- MIC (Neisseria subflava 3, Replicate 2, read-out: Minimum inhibitory concentration): 0.25 µg/mL (≈ 0.595 µM)
- MIC (Neisseria subflava 4, Consensus, read-out: Minimum inhibitory concentration): 0.064 µg/mL (≈ 0.152 µM)
- MIC (Neisseria subflava 4, Replicate 1, read-out: Minimum inhibitory concentration): 0.064 µg/mL (≈ 0.152 µM)
- MIC (Neisseria subflava 4, Replicate 2, read-out: Minimum inhibitory concentration): 0.064 µg/mL (≈ 0.152 µM)
- MIC (Neisseria subflava 4, Replicate 3, read-out: Minimum inhibitory concentration): 0.064 µg/mL (≈ 0.152 µM)
- MIC (Neisseria subflava 5, Consensus, read-out: Minimum inhibitory concentration): 0.5 µg/mL (≈ 1.19 µM)
- MIC (Neisseria subflava 5, Replicate 1, read-out: Minimum inhibitory concentration): 0.5 µg/mL (≈ 1.19 µM)
- MIC (Neisseria subflava 5, Replicate 2, read-out: Minimum inhibitory concentration): 0.5 µg/mL (≈ 1.19 µM)
- MIC (Neisseria subflava 5, Replicate 3, read-out: Minimum inhibitory concentration): 0.5 µg/mL (≈ 1.19 µM)
- MIC (po, Neisseria oralis 1, Consensus, read-out: Minimum inhibitory concentration): 0.25 µg/mL (≈ 0.595 µM)
- MIC (po, Neisseria oralis 1, Replicate 1, read-out: Minimum inhibitory concentration): 0.25 µg/mL (≈ 0.595 µM)
- MIC (po, Neisseria oralis 1, Replicate 2, read-out: Minimum inhibitory concentration): 0.25 µg/mL (≈ 0.595 µM)
- MIC (po, Neisseria oralis 1, Replicate 3, read-out: Minimum inhibitory concentration): 0.25 µg/mL (≈ 0.595 µM)
- MIC (read-out: Minimum inhibitory concentration, Neisseria cinerea 4, Consensus): 0.125 µg/mL (≈ 0.297 µM)
- MIC (read-out: Minimum inhibitory concentration, Neisseria cinerea 4, Replicate 1): 0.125 µg/mL (≈ 0.297 µM)
- MIC (read-out: Minimum inhibitory concentration, Neisseria cinerea 4, Replicate 2): 0.125 µg/mL (≈ 0.297 µM)
- MIC (read-out: Minimum inhibitory concentration, Neisseria cinerea 4, Replicate 3): 0.125 µg/mL (≈ 0.297 µM)
- MIC (read-out: Minimum inhibitory concentration, Neisseria cinerea 5, Consensus): 0.125 µg/mL (≈ 0.297 µM)
- MIC (read-out: Minimum inhibitory concentration, Neisseria cinerea 5, Replicate 1): 0.125 µg/mL (≈ 0.297 µM)
- MIC (read-out: Minimum inhibitory concentration, Neisseria cinerea 5, Replicate 2): 0.125 µg/mL (≈ 0.297 µM)
- MIC (read-out: Minimum inhibitory concentration, Neisseria cinerea 5, Replicate 3): 0.125 µg/mL (≈ 0.297 µM)
- MIC (read-out: Minimum inhibitory concentration, Neisseria cinerea 8, Consensus): 0.125 µg/mL (≈ 0.297 µM)
- MIC (read-out: Minimum inhibitory concentration, Neisseria cinerea 8, Replicate 2): 0.125 µg/mL (≈ 0.297 µM)
- MIC (read-out: Minimum inhibitory concentration, Neisseria cinerea 8, Replicate 3): 0.125 µg/mL (≈ 0.297 µM)
- MIC (read-out: Minimum inhibitory concentration, Neisseria elongata 1, Consensus): 0.125 µg/mL (≈ 0.297 µM)
- MIC (read-out: Minimum inhibitory concentration, Neisseria elongata 1, Replicate 1): 0.125 µg/mL (≈ 0.297 µM)
- MIC (read-out: Minimum inhibitory concentration, Neisseria elongata 1, Replicate 2): 0.125 µg/mL (≈ 0.297 µM)
- MIC (read-out: Minimum inhibitory concentration, Neisseria elongata 1, Replicate 3): 0.125 µg/mL (≈ 0.297 µM)
- MIC (read-out: Minimum inhibitory concentration, Neisseria flava 1, Consensus): 0.125 µg/mL (≈ 0.297 µM)
- MIC (read-out: Minimum inhibitory concentration, Neisseria flava 1, Replicate 1): 0.125 µg/mL (≈ 0.297 µM)
- MIC (read-out: Minimum inhibitory concentration, Neisseria flava 1, Replicate 3): 0.125 µg/mL (≈ 0.297 µM)
- MIC (read-out: Minimum inhibitory concentration, Neisseria flavescens 2, Consensus): 0.125 µg/mL (≈ 0.297 µM)
- MIC (read-out: Minimum inhibitory concentration, Neisseria flavescens 2, Replicate 1): 0.125 µg/mL (≈ 0.297 µM)
- MIC (read-out: Minimum inhibitory concentration, Neisseria flavescens 2, Replicate 3): 0.125 µg/mL (≈ 0.297 µM)
- MIC (read-out: Minimum inhibitory concentration, Neisseria flavescens 8, Consensus): 0.125 µg/mL (≈ 0.297 µM)
- MIC (read-out: Minimum inhibitory concentration, Neisseria flavescens 8, Replicate 2): 0.125 µg/mL (≈ 0.297 µM)
- MIC (read-out: Minimum inhibitory concentration, Neisseria flavescens 8, Replicate 3): 0.125 µg/mL (≈ 0.297 µM)
- MIC (read-out: Minimum inhibitory concentration, Neisseria flavescens 10, Consensus): 0.125 µg/mL (≈ 0.297 µM)
- MIC (read-out: Minimum inhibitory concentration, Neisseria flavescens 10, Replicate 1): 0.125 µg/mL (≈ 0.297 µM)
- MIC (read-out: Minimum inhibitory concentration, Neisseria flavescens 10, Replicate 3): 0.125 µg/mL (≈ 0.297 µM)
- MIC (read-out: Minimum inhibitory concentration, Neisseria flavescens 12, Replicate 3): 0.125 µg/mL (≈ 0.297 µM)
- MIC (read-out: Minimum inhibitory concentration, Neisseria mucosa 2, Consensus): 0.125 µg/mL (≈ 0.297 µM)
- MIC (read-out: Minimum inhibitory concentration, Neisseria mucosa 2, Replicate 2): 0.125 µg/mL (≈ 0.297 µM)
- MIC (read-out: Minimum inhibitory concentration, Neisseria mucosa 2, Replicate 3): 0.125 µg/mL (≈ 0.297 µM)
- MIC (read-out: Minimum inhibitory concentration, Neisseria perflava 5, Consensus): 0.125 µg/mL (≈ 0.297 µM)
- MIC (read-out: Minimum inhibitory concentration, Neisseria perflava 5, Replicate 1): 0.125 µg/mL (≈ 0.297 µM)
- MIC (read-out: Minimum inhibitory concentration, Neisseria perflava 5, Replicate 2): 0.125 µg/mL (≈ 0.297 µM)
- MIC (read-out: Minimum inhibitory concentration, Neisseria perflava 5, Replicate 3): 0.125 µg/mL (≈ 0.297 µM)
- MIC (read-out: Minimum inhibitory concentration, Neisseria perflava 18, Consensus): 0.125 µg/mL (≈ 0.297 µM)
- MIC (read-out: Minimum inhibitory concentration, Neisseria perflava 18, Replicate 1): 0.125 µg/mL (≈ 0.297 µM)
- MIC (read-out: Minimum inhibitory concentration, Neisseria perflava 18, Replicate 3): 0.125 µg/mL (≈ 0.297 µM)
- MIC (read-out: Minimum inhibitory concentration, Neisseria perflava 24, Consensus): 0.125 µg/mL (≈ 0.297 µM)
- MIC (read-out: Minimum inhibitory concentration, Neisseria perflava 24, Replicate 1): 0.125 µg/mL (≈ 0.297 µM)
- MIC (read-out: Minimum inhibitory concentration, Neisseria perflava 24, Replicate 2): 0.125 µg/mL (≈ 0.297 µM)
- MIC (read-out: Minimum inhibitory concentration, Neisseria perflava 24, Replicate 3): 0.125 µg/mL (≈ 0.297 µM)
- MIC (read-out: Minimum inhibitory concentration, Neisseria polysaccharea 1, Consensus): 0.125 µg/mL (≈ 0.297 µM)
- MIC (read-out: Minimum inhibitory concentration, Neisseria polysaccharea 1, Replicate 1): 0.125 µg/mL (≈ 0.297 µM)
- MIC (read-out: Minimum inhibitory concentration, Neisseria polysaccharea 1, Replicate 2): 0.125 µg/mL (≈ 0.297 µM)
- MIC (read-out: Minimum inhibitory concentration, Neisseria polysaccharea 1, Replicate 3): 0.125 µg/mL (≈ 0.297 µM)
- MIC (read-out: Minimum inhibitory concentration, Neisseria sicca 4, Consensus): 0.125 µg/mL (≈ 0.297 µM)
- MIC (read-out: Minimum inhibitory concentration, Neisseria sicca 4, Replicate 1): 0.125 µg/mL (≈ 0.297 µM)
- MIC (read-out: Minimum inhibitory concentration, Neisseria sicca 4, Replicate 2): 0.125 µg/mL (≈ 0.297 µM)
- MIC (read-out: Minimum inhibitory concentration, Neisseria subflava 3, Replicate 3): 0.125 µg/mL (≈ 0.297 µM)
